According to ChEMBL document CHEMBL1143903, “Synthesis of novel spiropyrrolizidines as potent antimicrobial agents for human and plant pathogens” (2008):
In brackets after ≈: the same amount, converted by molar mass.

Experiments:
Fusarium oxysporum = assay: Antifungal activity against Fusarium oxysporum by poison food technique; format: functional
Macrophomina phaseolina = assay: Antifungal activity against Macrophomina phaseolina by poison food technique; format: functional
Staphylococcus aureus = assay: Antibacterial activity against Staphylococcus aureus by well diffusion method; format: functional
Proteus mirabilis = assay: Antibacterial activity against Proteus mirabilis by well diffusion method; format: functional
Proteus vulgaris = assay: Antibacterial activity against Proteus vulgaris by well diffusion method; format: functional
Salmonella typhi = assay: Antibacterial activity against Salmonella typhi by well diffusion method; format: functional, Salmonella enterica subsp. enterica serovar Typhi; conditions: Salmonella enterica

Compound: COC(=O)Nc1nc2ccccc2[nH]1 [CARBENDAZIM]
- MIC (Fusarium oxysporum): 18 µg/mL (≈ 94.1 µM)
- MIC (Macrophomina phaseolina): 15 µg/mL (≈ 78.5 µM)

Compound: CN(C)c1ccc([C@H]2C3CCCN3[C@@]3(C(=O)Nc4ccccc43)[C@]23CCC2c4ccccc4NC2C3=O)cc1 (some centres not stated)
- MIC (Staphylococcus aureus): 35 µg/mL (≈ 67.5 µM)
- MIC (Proteus mirabilis): 50 µg/mL (≈ 96.4 µM)
- MIC (Proteus vulgaris): 45 µg/mL (≈ 86.8 µM)
- MIC (Salmonella typhi): 35 µg/mL (≈ 67.5 µM)
- MIC (Fusarium oxysporum): 150 µg/mL (≈ 289 µM)
- MIC (Macrophomina phaseolina): 75 µg/mL (≈ 145 µM)

Compound: COc1ccc([C@H]2C3CCCN3[C@@]3(C(=O)Nc4ccccc43)[C@]23CCC2c4ccccc4NC2C3=O)cc1 (some centres not stated)
- MIC (Staphylococcus aureus): 40 µg/mL (≈ 79.1 µM)
- MIC (Proteus mirabilis): 25 µg/mL (≈ 49.4 µM)
- MIC (Proteus vulgaris): 15 µg/mL (≈ 29.7 µM)
- MIC (Salmonella typhi): 45 µg/mL (≈ 89 µM)
- MIC (Fusarium oxysporum): 75 µg/mL (≈ 148 µM)
- MIC (Macrophomina phaseolina): 25 µg/mL (≈ 49.4 µM)

Compound: O=C1C2Nc3ccccc3C2CC[C@@]12[C@@H](c1ccc(Cl)cc1)C1CCCN1[C@@]21C(=O)Nc2ccccc21 (some centres not stated)
- MIC (Staphylococcus aureus): 20 µg/mL (≈ 39.2 µM)
- MIC (Proteus mirabilis): 35 µg/mL (≈ 68.6 µM)
- MIC (Proteus vulgaris): 10 µg/mL (≈ 19.6 µM)
- MIC (Salmonella typhi): 30 µg/mL (≈ 58.8 µM)
- MIC (Fusarium oxysporum): 125 µg/mL (≈ 245 µM)
- MIC (Macrophomina phaseolina): 75 µg/mL (≈ 147 µM)

Compound: O=C1C2Nc3ccccc3C2CC[C@@]12[C@@H](c1ccc(Br)cc1)C1CCCN1[C@@]21C(=O)Nc2ccccc21 (some centres not stated)
- MIC (Staphylococcus aureus): 45 µg/mL (≈ 81.2 µM)
- MIC (Proteus mirabilis): 30 µg/mL (≈ 54.1 µM)
- MIC (Proteus vulgaris): 25 µg/mL (≈ 45.1 µM)
- MIC (Salmonella typhi): 30 µg/mL (≈ 54.1 µM)
- MIC (Fusarium oxysporum): 50 µg/mL (≈ 90.2 µM)
- MIC (Macrophomina phaseolina): 25 µg/mL (≈ 45.1 µM)

Compound: CN(C)[C@@H]1C(O)=C(C(N)=O)C(=O)[C@@]2(O)C(O)=C3C(=O)c4c(O)cccc4[C@@](C)(O)[C@H]3C[C@@H]12 [TETRACYCLINE]
- MIC (Staphylococcus aureus): 10 µg/mL (≈ 22.5 µM)
- MIC (Proteus mirabilis): 20 µg/mL (≈ 45 µM)
- MIC (Proteus vulgaris): 15 µg/mL (≈ 33.8 µM)
- MIC (Salmonella typhi): 15 µg/mL (≈ 33.8 µM)

Compound: O=C1C2Nc3ccccc3C2CC[C@@]12[C@@H](c1ccc([N+](=O)[O-])cc1)C1CCCN1[C@@]21C(=O)Nc2ccccc21 (some centres not stated)
- MIC (Staphylococcus aureus): 25 µg/mL (≈ 48 µM)
- MIC (Proteus mirabilis): 55 µg/mL (≈ 106 µM)
- MIC (Proteus vulgaris): 35 µg/mL (≈ 67.2 µM)
- MIC (Salmonella typhi): 40 µg/mL (≈ 76.8 µM)
- MIC (Fusarium oxysporum): 75 µg/mL (≈ 144 µM)
- MIC (Macrophomina phaseolina): 100 µg/mL (≈ 192 µM)

Compound: Cc1ccc([C@H]2C3CCCN3[C@@]3(C(=O)Nc4ccccc43)[C@]23CCC2c4ccccc4NC2C3=O)cc1 (some centres not stated)
- MIC (Staphylococcus aureus): 45 µg/mL (≈ 91.9 µM)
- MIC (Proteus mirabilis): 65 µg/mL (≈ 133 µM)
- MIC (Proteus vulgaris): 40 µg/mL (≈ 81.7 µM)
- MIC (Salmonella typhi): 35 µg/mL (≈ 71.5 µM)
- MIC (Fusarium oxysporum): 75 µg/mL (≈ 153 µM)
- MIC (Macrophomina phaseolina): 50 µg/mL (≈ 102 µM)

Compound: O=C1C2Nc3ccccc3C2CC[C@@]12[C@@H](c1ccccc1)C1CCCN1[C@@]21C(=O)Nc2ccccc21 (some centres not stated)
- MIC (Proteus mirabilis): 55 µg/mL (≈ 116 µM)
- MIC (Proteus vulgaris): 30 µg/mL (≈ 63.1 µM)
- MIC (Salmonella typhi): 20 µg/mL (≈ 42.1 µM)
- MIC (Fusarium oxysporum): 125 µg/mL (≈ 263 µM)
- MIC (Macrophomina phaseolina): 50 µg/mL (≈ 105 µM)
